Results taken from patent publication EP0076089A2, “Azabicycloalkane derivatives, process for their preparation, and a pharmaceutical composition containing them” (BEECHAM GROUP PLC, priority 1981, dated 1983).
Where a name gives a salt, the structure may show the parent alone.

Tested on: spontaneous climbing behaviour of mice
Assay: Spontaneous climbing behaviour of mice (method of Martres et al.)
Type: in vivo
Details: 0.2mg/kg subcutaneous, climbs counted over a 10 minute period commencing 3 minutes after administration, percentage change from control group
Procedure: It is believed that this inhibitory effect is mediated by stimulation of presynaptic dopaminergic autoreceptors, i.e. receptors whose stimulation results in inhibition of dopamine synthesis and electrical activity of dopamine neurones. Spontaneous climbing behaviour was assessed by the method of M.P. Martres et al., Brain Research, 1977, 136, 319. This involves the monitoring of the frequency of climbing behaviour of mice in inverted food hoppers over a 10 minute period commencing 3 minutes after subcutaneous administration of compound. A climb is defined as the mouse having all four feet off the ground. Experiments are carried out with a minimum of 5 groups of 10 mice, one group acting as control.

| Compound | % Inhibition of Spontaneous Climbing at 0.2mg/kg (hydrobromide, 0.2 mg/kg) [%] | % Inhibition of Spontaneous Climbing at 0.2mg/kg [%] |
| --- | --- | --- |
| Oc1cccc(C2CCC3CCC2N3Cc2ccccc2)c1 (racemic) [Compound 14, (±)-(2-endo)-8-Benzyl-2-(3'-hydroxyphenyl)-8-azabicyclo(3.2.1)octane hydrobromide] | 38 | – |
| Oc1cccc(C2CCC3CCC2N3Cc2ccccc2)c1 (racemic) [Compound 13, (±)-(2-Exo)-8-Benzyl-2-(3'-hydroxyphenyl)-8-azabicyclo(3.2.1)octane hydrobromide] | 24 | – |
| CCCN1C2CCC(c3cccc(O)c3)C1CC2 (racemic) [Compound 16, 2-endo-8-n-propyl-2-(3'-hydroxyphenyl)-8-azabicyclo[3.2.7]octane] | – | 49 |
| Oc1cccc(C2CCC3CCC2N3CCc2ccccc2)c1 (racemic) [Compound 20, 2-endo-8-phenethyl-2-(3'-hydroxyphenyl)-8-azabicyclo[3.2.1] octane] | – | 12 |
